Legend:
HEK293 cells [1] = assay: Preliminary screening as DNA vectors, GFP transfection of HEK293 cells; assay type: cell-based; conditions: HEK293 cells; lipid/DOPE liposome with 75 ng plasmid DNA (psin-EGFP-IRES-Puro); number of cells expressing GFP divided by total number of nuclei (Hoechst)
How it was run: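 Lipid + DOPE liposomes (NaOAc, pH 5.6) complexed w/ 75 ng psin-EGFP-IRES-Puro, 30 min RT; added to 3-5×10^4 HEK293/well, 37° C. Hoechst 0.2 μg/mL at 20-24 h, imaged after further 20-24 h. Efficiency = GFP+ cells / total nuclei.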

HEK293 cells [2] = assay: Preliminary screening as mRNA vectors, EGFP mRNA transfection of HEK293 cells; assay type: cell-based; conditions: HEK293 cells, 96-well plates, EGFP mRNA 50 ng per well; percentage of GFP fluorescent cells relative to total number of cells (Hoechst)
How it was run: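 Each well of HEK293 cells received 50 ng of EGFP mRNA. Efficiency was expressed as percent GFP-expressing cells over Hoechst-defined total cell number.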

| SMILES | Absolute DNA transfection efficiency in HEK293 cells (HEK293 cells [1]) [%] | Absolute mRNA transfection efficiency in HEK293 cells (HEK293 cells [2]) [%] |
| --- | --- | --- |
| CCCCCCCCNc1nc(NCCCCCCCC)nc(NCCN(C)C)n1 [Compound N8N8D1] | 2.3 | 0.0 |
| CCCCCCCCNc1nc(NCCCCCCCC)nc(NCCN2CCOCC2)n1 [Compound N8N8D2] | 0.0 | 0.0 |
| CCCCCCCCNc1nc(NCCCCCCCC)nc(NCCN2CCCC2)n1 [Compound N8N8D3] | 1.8 | 0.4 |
| CCCCCCCCNc1nc(NCCCCCCCC)nc(NCCN2CCCCC2)n1 [Compound N8N8D4] | 0.0 | 0.2 |
| CCCCCCCCNc1nc(NCCCCCCCC)nc(NCCN2CCN(C)CC2)n1 [Compound N8N8D5] | 0.0 | 0.0 |
| CCCCCCCCNc1nc(NCCCCCCCC)nc(NCCCN(C)C)n1 [Compound N8N8D6] | 0.0 | 0.0 |
| CCCCCCCCNc1nc(NCCCCCCCC)nc(NCCN(CC)CC)n1 [Compound N8N8D7] | 0.0 | 0.0 |
| CCCCCCCCNc1nc(NCCCCCCCC)nc(NCCCN2CCOCC2)n1 [Compound N8N8D8] | 0.0 | 0.0 |
| CCCCCCCCNc1nc(NCCCCCCCC)nc(NCCCN2CCN(C)CC2)n1 [Compound N8N8D9] | 0.7 | 0.0 |
| CCCCCCCCNc1nc(NCCCCCCCC)nc(NCC2CCN(C)CC2)n1 [Compound N8N8D10] | 0.0 | 0.0 |
| CCCCCCCCCNc1nc(NCCCCCCCC)nc(NCCN(C)C)n1 [Compound N8N9D1] | 0.0 | 0.8 |
| CCCCCCCCCNc1nc(NCCCCCCCC)nc(NCCN2CCOCC2)n1 [Compound N8N9D2] | 0.0 | 0.3 |
| CCCCCCCCCNc1nc(NCCCCCCCC)nc(NCCN2CCCC2)n1 [Compound N8N9D3] | 0.5 | 0.5 |
| CCCCCCCCCNc1nc(NCCCCCCCC)nc(NCCN2CCCCC2)n1 [Compound N8N9D4] | 0.0 | 0.0 |
| CCCCCCCCCNc1nc(NCCCCCCCC)nc(NCCN2CCN(C)CC2)n1 [Compound N8N9D5] | 0.0 | 0.0 |
| CCCCCCCCCNc1nc(NCCCCCCCC)nc(NCCCN(C)C)n1 [Compound N8N9D6] | 0.4 | 0.0 |
| CCCCCCCCCNc1nc(NCCCCCCCC)nc(NCCN(CC)CC)n1 [Compound N8N9D7] | 0.0 | 0.0 |
| CCCCCCCCCNc1nc(NCCCCCCCC)nc(NCCCN2CCOCC2)n1 [Compound N8N9D8] | 0.0 | 0.0 |
| CCCCCCCCCNc1nc(NCCCCCCCC)nc(NCCCN2CCN(C)CC2)n1 [Compound N8N9D9] | 0.0 | 0.0 |
| CCCCCCCCCNc1nc(NCCCCCCCC)nc(NCC2CCN(C)CC2)n1 [Compound N8N9D10] | 0.5 | 0.2 |
| CCCCCCCCCCCNc1nc(NCCCCCCCC)nc(NCCN(C)C)n1 [Compound N8N11D1] | 0.4 | 0.0 |
| CCCCCCCCCCCNc1nc(NCCCCCCCC)nc(NCCN2CCOCC2)n1 [Compound N8N11D2] | 0.0 | 0.0 |
| CCCCCCCCCCCNc1nc(NCCCCCCCC)nc(NCCN2CCCC2)n1 [Compound N8N11D3] | 3.6 | 4.2 |
| CCCCCCCCCCCNc1nc(NCCCCCCCC)nc(NCCN2CCCCC2)n1 [Compound N8N11D4] | 0.2 | 0.2 |
| CCCCCCCCCCCNc1nc(NCCCCCCCC)nc(NCCN2CCN(C)CC2)n1 [Compound N8N11D5] | 0.2 | 0.4 |

Reference: patent US20230123334A1, “AMINO LIPID COMPOUND, PREPARATION METHOD THEREFOR, AND APPLICATION THEREOF” (SHENZHEN SHENXIN BIOTECHNOLOGY CO., LTD., priority 2020, published 2023)
